# Assay results as given in patent publication US6867015B1, “Rapid microbiological test for the detection of antibacterial compounds” (Gist-Brocades B.V., priority 1995, dated 2005).
# Tests used:
# Type in all cases: cell-based
# [1] = test system: Bacillus stearothermophilus var. calidolactis C953 spores; experiment: Test type A: agar test tubes with bromocresolpurple and nutrient tablet, milk sample; conditions: fresh cow's milk, 64° C.
# Experimental: Test tubes of type A contained an agar medium prepared as follows: A solution was made of 12 g agar, 9 g sodium chloride and 50 ml of a 0.1 M triethanolamine buffer solution (pH=8.0) in 1000 ml distilled water. An amount of a solution of bromocresolpurple to give a final concentration of 20 mg per 1000 ml was also added. The final solution was sterilized for 20 minutes at 121° C. and cooled to about 60° C. To this solution different amounts of a suspension of Bacillus stearothermophilus var. calidolactis […] spores in distilled water were added to give final concentrations between 10^5 and 10^10 spores per ml. Sterile tubes with a diameter of about 9 mm were filled with 0.3 ml of the agar solution under aseptic conditions and immediately sealed, e.g. with aluminium foil. The agar solution in the test tubes was allowed to solidify in the test tubes while the test tubes were held in an upright position. The tubes were stored at a temperature between 5° C. and 15° C. A mixture was made of 100 g dextrose, 160 g Avicel PH101, 50 g tryptose, 14 g yeast extract and 15 g precirol. This mixture was sufficient to prepare about 18000 tablets with a diameter of approximately 3 mm and a thickness of approximately 1.9 mm. […] The time at which the colour of the agar medium became yellow was determined. […]
# [2] = test system: Bacillus stearothermophilus var. calidolactis C953 spores; experiment: Test type B: agar test tubes with Brilliant Black and Toluidine Blue, milk sample
# Experimental: Test tubes of type B contained an agar medium prepared as follows: A solution was made of 10 g agar, 9 g sodium chloride, 2 g glucose, 2 g peptone, 2 g tryptone, 4 g yeast extract and 50 ml of a 0.1 M triethanolamine buffer solution (pH=8.0) in 1000 ml distilled water. The final solution was sterilized for 20 minutes at 121° C. and cooled to about 60° C. An amount of a solution of Brilliant Black to give a final concentration of 80 mg per 1000 ml and an amount of a solution of Toluidine Blue to give a final concentration of 3 mg per 1000 ml were also added. To this solution different amounts of a suspension of Bacillus stearothermophilus var. caildolactis C953 spores In distilled water were added to give final concentrations between 10^8 and 10^10 spores per ml. Sterile tubes with a diameter of about 9 mm were filled with 0.3 ml of the agar solution under aseptic conditions and Immediately sealed e.g. with an aluminum foil. The agar solution In the test tubes was allowed to solidity in the test tubes while the test tubes were held in an upright position. The tubes were stored at a temperature between 5° C. and 15° C. An amount of penicillin G of 0.003 I.U. per ml was added to fresh cow's milk. The control sample contained no penicillin G. Two of each of the test tubes of type B with concentrations of Bacillus stearothermophilus var. calidolactis spores as described in Example II were opened by removing the seal. Then 0.1 ml of each of the two milk samples was added to each of the test tubes and the test tubes were immediately placed in a waterbath kept at 64° C. Observations were made after 30 minutes to 3 hours. The time at which the colour of the agar medium became yellow was determined. As is shown in Table 1, the test duration correlated with the amount of spores added to the agar medium without influencing the sensitivity of the test in a negative way.
# [3] = test system: Bacillus stearothermophilus var. calidolactis spores C953; experiment: Test type C: microtiterplates with agar medium containing trimethoprim, milk sample
# Experimental: For the preparation of the test plates (test type C) the procedure described in Example I was followed except that the nutrients described in Example III (dextrose, tryptose and yeast extract) were not added separately but were added to the initial agar medium in the same concentration as described in Example I. Also together with the buffer solution an amount of trimethoprim solution was added to give a final concentration of 60 μg per litre. To the wells of sterile microtiterplates 20 μl of the agar solution was added under asceptic conditions. The plates were immediately sealed with aluminium foil. The plates were stored at a temperature between 5° C. and 15° C. An amount of penicillin G of 3 ppb was added to fresh cow's milk. […] The control sample contained no penicillin G or sulphadiazine. The microtiterplates were opened by removing the seal. Then 20 μl of each of the three milk samples was added to each of the test plates (duplo) containing different concentrations of Bacillus stearothermophilus var. calidolactis spores […]. The plates were immediately placed in a waterbath kept at 64° C. Observations were made after 30 minutes to 150 minutes. The time at which the colour of the agar medium became yellow was determined. As is shown in table 2, the test duration correlated with the amount of spores added to the agar medium without influencing the sensitivity of the test in a negative way.
# [4] = test system: Streptococcus thermophilus T101 (DSM 4022); experiment: Test type D: detection of antibiotics in milk without agar, bromocresolpurple; conditions: test duration of 80 minutes
# Experimental: In this experiment Streptococcus thermophilus […] (DSM 4022) was sed for the determination of antibiotics in milk. Streptococcus thermophilus […] was grown using methods known per se. An amount of a solution of bromocresolpurple to give a final concentration of […] was added to fresh cow's milk. To part of the fresh cow's milk also an amount of penicillin G of 4 ppb added. The control sample contained no penicillin G. To the milk samples different amounts of Streptococcus thermophilus […] were added to give final concentrations between 10^7 and 10^9 CFU per ml. Immediately after preparation of the samples sterile tubes with a diameter of about 9 mm were filled with 0.3 ml of each milk sample (duplo). The tubes were immediately placed in a waterbath kept at 42° C. Observations were made after 30 minutes to 2 hours and 30 minutes. The time at which the colour of the agar medium became yellow was determined. As is shown in table 3, the test duration correlated with the amount of cells added to the milk without influencing the sensitivity of the test in a negative way.
Structure (SMILES),detectable amount of antibacterial compound (agar medium blue) [1] [I.U. per ml],"concentration detected in a milk sample ([2]; as little as 70 minutes, test organism more than 10^7 CFU per ml) [IU/ml]","concentration that can be detected ([2]; test type B, test duration of 70 minutes, milk) [I.U. per ml]",concentration detected in a milk sample ([2]; test unit of 0.3 ml agar solution in upright test tube of internal diameter 9 mm) [lU/ml],concentration that can be detected ([3]; test duration of 80 minutes) [ppb],concentration that can be detected ([3]; test duration of 90 minutes) [ppb],concentration that can be detected [4] [ppb]
CC1(C)S[C@@H]2[C@H](NC(=O)Cc3ccccc3)C(=O)N2[C@H]1C(=O)O [penicillin G],≥ 0.003,0.003,0.003,0.003,3,3,≥ 4
Nc1ccc(S(=O)(=O)Nc2ncccn2)cc1 [sulphadiazine],,,,,,100,
